Experimental data from EP4813999A1, “NOVEL PEPTIDE DERIVATIVE AND PHARMACEUTICAL COMPOSITION FOR PREVENTING OR TREATING MACULAR DEGENERATION COMPRISING SAME” (Supadelixir Inc., priority 2023, dated 2026).

Columns and labels:
[1] = system: ARPE19 cells; assay: Cell viability under hydrogen peroxide-induced oxidative stress (CCK-8); assay type: cell-based, Human; details: 400 µM hydrogen peroxide, test substance 0.01, 0.1, 1, 2 µM, 24 hours
Method: Human retinal pigment epithelial cells (ARPE19) were cultured in a humidified incubator with 5% CO2 at 37°C. DMEM/F12 (Gibco) containing 10% fetal bovine serum and penicillin (100 U/ml)/streptomycin ([…]) was used as medium. The cells were cultured with the medium replaced with fresh medium every other day and were passaged using 0.25% trypsin containing 0.02% ethylenediaminetetraacetic acid (EDTA).
After oxidative stress was induced in human retinal pigment epithelial cells using hydrogen peroxide (H2O2), the test substance (SE101B2L) was added at varying concentrations to confirm changes in cell viability. CCK-8 was used to confirm cell viability.
ARPE19 cells were seeded into a 96-well plate at 1 × 10^4 cells/well and cultured in an incubator for 24 hours. The test substance was added to each treatment group at concentrations of 0, 0.01, 0.1, 1, and 2 µM, together with 400 µM hydrogen peroxide, followed by incubation for 24 hours. […] After incubation, a 96-well plate containing 90 µL of cell suspension per well was inoculated with 10 µL of ready-to-use CCK-8 solution. The plate was incubated for 2 hours, and the OD450 of the supernatant was measured to confirm cell viability through quantification.

[2] = system: HUVECs; assay: VEGF-induced chemotactic cell migration (transwell chamber); assay type: cell-based, human; details: VEGF 10 ng/ml, test substance 0.1, 1, 10, 100 nM, 3 hours
Method: (§1) The experiment was conducted by dividing the groups into an untreated group, a group treated with VEGF alone, and a group co-treated with VEGF and the test substance (SE101B2L).
In addition, whether the test substance could inhibit VEGF-induced changes in cell migration ability in HUVECs was confirmed. In terms of cell migration ability, changes in chemotactic cell migration were confirmed using a transwell chamber (24-well plate type). After coating the lower surface of a transwell insert membrane having a diameter of 6.5 mm and a pore size of 8.0 µm with 10 µg of gelatin, 5 × 10^4 cultured HUVECs were seeded into the inserts using 0.1 ml of HUVEC basal medium. The test substance was added to each test substance-treated group to final concentrations of 0.1, 1, 10, and 100 nM, and VEGF, together with HUVEC basal medium, was added to the lower wells configured in a 24-well plate format to a final concentration of 10 ng/ml, followed by incubation in an incubator with 5% CO2 at 37°C for 3 hours. Thereafter, the medium was removed from the inserts of the test groups, and the inserts were fixed using a 10% formalin solution. […] Migrated cells in each test group were photographed, and the number of cells was counted. The number of counted cells was converted to values relative to that of the untreated group, thereby calculating the results.

[3] = system: AKT and ERK; assay: VEGF-induced phosphorylation of AKT and ERK (immunoblot); assay type: cell-based, human; details: HUVECs; VEGF co-treatment; test substance 0.1, 1, 10, 100 nM; 10 minutes
Method: as §1
Additionally, whether the test substance could regulate the phosphorylation levels of AKT and ERK molecules, which are important in signaling related to VEGF-induced angiogenesis, was tested. Into a 6-well plate containing 2 ml of growth medium, 2 × 10^5 HUVECs were added and seeded, followed by incubation in an incubator with 5% CO2 at 37°C for one day. Subsequently, after washing the cells with phosphate-buffered saline (PBS), incubation was performed for an additional 6 hours using CEFOgro-HUVEC medium containing 1% fetal bovine serum. The prepared cells were divided into an untreated group, a group treated with VEGF alone, and groups co-treated with VEGF and the test substance (0.1, 1, 10, and 100 nM), followed by treatment with the test substance. […] Protein amounts of the cell lysates were measured by a Bradford assay, followed by separation using sodium dodecyl sulfate-polyacrylamide gel electrophoresis (SDS-PAGE). […]

[4] = system: HUVECs; assay: VEGF-induced tube formation on Matrigel; assay type: cell-based, human; details: VEGF 10 ng/ml, test substance 0.1, 1, 10, 100 nM, 24 hours
Method: The anti-angiogenic activity of the test substance (SE101B2L) was evaluated using HUVECs. HUVECs were cultured in CEFOgro-HUVEC basal medium (CEFO Co., Ltd.) supplemented with growth supplements containing vascular endothelial cell growth-related factors and serum (HUVEC supplements, CEFO Co., Ltd.), which was used as vascular endothelial cell growth medium (hereinafter denoted as "growth medium").
as §1
First, tube formation ability was confirmed to determine whether the test substance inhibited VEGF-induced angiogenesis. HUVECs were seeded into a Matrigel-coated 48-well plate at 5 × 10^4 cells per well together with 0.5 ml of growth medium. VEGF was added to each VEGF-treated group to a final concentration of 10 ng/ml, while the test substance was added to each test substance-treated group to final concentrations of 0.1, 1, 10, and 100 nM. The test plate was incubated in an incubator with 5% CO2 at 37°C for 24 hours. After 24 hours, the degree of tube formation was observed under a microscope and photographed. The total tube length in each image was measured using the ImageJ program. The results were converted to values relative to the tube length for the untreated group.

decylbenzoyl-Cys-Phe-Lys-amide [SE101B2L]
cell viability [1]: increases cell viability in a concentration-dependent manner
cell migration ability (number of migrated cells) [2]: reduced by the test substance in a concentration-dependent manner
phosphorylation levels of signaling molecules (AKT, ERK) [3]: reduced by the test substance in a concentration-dependent manner
tube formation ability (total tube length) [4]: reduced by the test substance in a concentration-dependent manner
